The source of these data is EP2492354A1, “Method for identifying compounds useful in the treatment of photosensitive reflex epilepsy” (Institut National De La Recherche Agronomique (INRA), priority 2011, dated 2012).

Data set [1] relates to Fepi. The experiment in a line: Intermittent Light Stimulation (ILS) induced seizures in the photosensitive reflex epileptic chicken model. Type of data set: in vivo. The protocol: During 21 days, they were exposed to ILS (3 minutes) once a day.
Behavioural activities were observed and time recorded for each phase of the paroxysmal manifestation during controlled intermittent light stimulation: • T0: ILS starts • T1 (time in seconds): neck myoclonus starts • T2 (time in seconds): convulsive phase starts • T3 (time in seconds): convulsive phase ends
The first day they were tested for control and all had ILS induced seizures. […]
During the last 10 days, none of the animals was treated.
The influence of the treatment on the stimulus locked myoclonus and generalized convulsions of the photosensitive GRS was evaluated using generalized linear models implemented in the function glm of the software R, version 2.9.0. The number of seizures for each animal over a given phase of the experiment (with treatment and following treatment) was modeled using a binomial distribution, and linked to factors using the logit function. The delay for seizure initiation, the duration of the myoclonus and the duration of the convulsions were modeled using gamma distributions, and linked to the factors using the identity function. Sex was included as an additive co-factor in the analyses but not significant differences were found.

For data set [2] the following is noted: cited from earlier work.
The test system of data set [3] is plasma proteins. Particulars: cited from earlier work.

As for `CC[C@@H](C(N)=O)N1CCCC1=O` [(S)-a-ethyl-2-oxo-1-pyrrolidine acetamide], the anticonvulsant effect entry in data set [1] (chicken model of the invention) was “has an anticonvulsant effect”. The “persistence of the effect after the injection period” value in data set [1] (last 10 days without treatment) is given as “the effect partially persisting few days after the injection period”. Also, the “seizure duration (on average)” value in data set [1] (treated (50, 100 or 200 mg/Kg) homozygous, placebo 16.2 s, p-value 1 e-08) came to 10.7 s. Further, in data set [2] (in vivo), the “dose range over which the pharmacokinetics are linear” value was 500 to 5000 mg. Further, the “time to peak plasma concentrations” value in data set [2] (oral administration to fasted subjects) is given as “one”. In data set [2] (oral, with food), the “decrease of Cmax by food” value is 20% and the “delay of Tmax by food” value is 1.5 h. Also, the oral bioavailability in data set [2] (tablets) is 100%. In addition, the “time to steady state” value in data set [2] (twice-daily dosing) is 2 days. Besides, the “bound to plasma proteins” value in data set [3] was “less than 10%”.
